# From patent publication US11312719B2, “9-substituted amino triazolo quinazoline derivatives as adenosine receptor antagonists, pharmaceutical compositions and their use” (Merck Sharp & Dohme Corp., priority 2018, dated 2022)
# How the values were obtained:
# human A2A receptors = human A2A receptors (Homo sapiens (Human), UniProt P29274); assay: A2A antagonism in cAMP cell-based assay (LANCE cAMP, HEK293); details: HEK293 cells expressing human A2A receptor
# Summary of the method: (§1)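 HEK293 cells expressing human A2A or A2B, in HBSS/5 mM HEPES/200 nM rolipram, were preincubated with compound (0.5–10,000 nM, 0.25% DMSO) 30 min at 37° C. Adenosine was then added from 300 nM (A2A) or 600 nM (A2B) solution for 30 min.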
# human A2B receptors = human A2B receptors (Homo sapiens (Human), UniProt P29275); assay: A2B antagonism in cAMP cell-based assay (LANCE cAMP, HEK293); details: HEK293 cells expressing human A2B receptor
# human A2B receptors, sequence (P29275 whole entry): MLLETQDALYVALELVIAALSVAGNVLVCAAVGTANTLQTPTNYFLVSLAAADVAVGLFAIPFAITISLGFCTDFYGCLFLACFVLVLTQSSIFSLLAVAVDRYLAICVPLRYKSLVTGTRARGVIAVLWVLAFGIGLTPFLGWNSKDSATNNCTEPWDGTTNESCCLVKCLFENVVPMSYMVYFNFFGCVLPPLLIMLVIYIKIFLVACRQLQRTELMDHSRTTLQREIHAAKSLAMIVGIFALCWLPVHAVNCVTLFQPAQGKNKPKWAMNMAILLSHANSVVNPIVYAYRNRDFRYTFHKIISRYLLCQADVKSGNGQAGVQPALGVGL
# Summary of the method: as §1
# human A2A receptors, sequence (P29274 whole entry): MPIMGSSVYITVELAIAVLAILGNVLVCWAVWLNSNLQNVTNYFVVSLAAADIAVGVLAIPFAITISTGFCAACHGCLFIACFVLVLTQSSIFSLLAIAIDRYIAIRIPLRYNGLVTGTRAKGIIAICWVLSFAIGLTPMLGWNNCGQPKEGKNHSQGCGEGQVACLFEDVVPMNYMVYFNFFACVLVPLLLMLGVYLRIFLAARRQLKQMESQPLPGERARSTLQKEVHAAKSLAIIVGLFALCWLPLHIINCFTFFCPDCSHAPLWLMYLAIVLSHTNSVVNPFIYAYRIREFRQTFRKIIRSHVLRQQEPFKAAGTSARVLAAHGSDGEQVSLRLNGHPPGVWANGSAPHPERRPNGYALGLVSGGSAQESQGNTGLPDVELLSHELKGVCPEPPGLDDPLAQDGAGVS
IC50 (human A2A receptors) [nM],IC50 (human A2B receptors) [nM],A2B cAMP % Inh. @10000 nM (human A2B receptors; at 10000 nM) [% Inh.],SMILES
4.5,21.8,,"CC(O)C(C)(C)n1cc(N2CCC[C@@H](c3nc4c5cc(F)cc(F)c5nc(N)n4n3)C2)cn1 (single isomer, unassigned) [Example 247, (S or R)-3-(4-((R)-3-(5-amino-7,9-difluoro-[1,2,4]triazolo [1,5-c]quinazolin-2-yl)piperidin-1-yl)-1H-pyrazol-1-yl)-3-methylbutan-2-ol]"
1.4,8.4,,"C[C@H]1CC[C@@H](c2nc3c4cc(F)cc(F)c4nc(N)n3n2)CN1c1cnn(C(C)(CO)CO)c1 (single isomer, unassigned) [Example 248, 2-(4-((2S,5R or 2R,5S)-5-(5-amino-7,9-difluoro-[1,2,4]triazolo[1,5-c]quinazolin-2-yl)-2-methylpiperidin-1-yl)-1H-pyrazol-1-yl)-2-methylpropane-1,3-diol]"
26.9,197,,"C[C@@H]1CC[C@H](c2nc3c4cc(F)cc(F)c4nc(N)n3n2)CN1c1cnn(C(C)(CO)CO)c1 (single isomer, unassigned) [Example 249, 2-(4-((2R,5S or 2S,5R)-5-(5-amino-7,9-difluoro-[1,2,4]triazolo[1,5-c]quinazolin-2-yl)-2-methylpiperidin-1-yl)-1H-pyrazol-1-yl)-2-methylpropane-1,3-diol]"
0.7,4.9,,"COc1cc2nc(N)n3nc(C4CCC(C)N(c5cnn(C(C)(CO)CO)c5)C4)nc3c2cc1F (single isomer, unassigned) [Example 250, 2-(4-((2S,5R or 2R,5S)-5-(5-amino-9-fluoro-8-methoxy-[1,2,4]triazolo[1,5-c]quinazolin-2-yl)-2-methylpiperidin-1-yl)-1H-pyrazol-1-yl)-2-methylpropane-1,3-diol]"
39.5,387,,"COc1cc2nc(N)n3nc(C4CCC(C)N(c5cnn(C(C)(CO)CO)c5)C4)nc3c2cc1F (single isomer, unassigned) [Example 251, 2-(4-((2R,5S or 2S,5R)-5-(5-amino-9-fluoro-8-methoxy-[1,2,4]triazolo[1,5-c]quinazolin-2-yl)-2-methylpiperidin-1-yl)-1H-pyrazol-1-yl)-2-methylpropane-1,3-diol]"
95,8160,,"COc1cc2nc(N)n3nc(C4CCC(C)N(c5cnn(CC(C)(O)CO)c5)C4)nc3c2cc1F (single isomer, unassigned) [Example 252]"
123,> 10000,,"COc1cc2nc(N)n3nc(C4CCC(C)N(c5cnn(CC(C)(O)CO)c5)C4)nc3c2cc1F (single isomer, unassigned) [Example 253, (S or R)-2-(4-((2S,5R or 2R,5S)-5-(5-amino-9-fluoro-8-methoxy-[1,2,4]triazolo[1,5-c]quinazolin-2-yl)-2-methylpiperidin-1-yl)-1H-pyrazol-1-yl)-2-methylpropane-1,2-diol]"
1.5,10,,"COc1cc2nc(N)n3nc(C4CCC(C)N(c5cnn(CC(C)(O)CO)c5)C4)nc3c2cc1F (single isomer, unassigned) [Example 254]"
2.6,28.8,,"COc1cc2nc(N)n3nc(C4CCC(C)N(c5cnn(CC(C)(O)CO)c5)C4)nc3c2cc1F (single isomer, unassigned) [Example 255]"
241,3890,,"CC1CCC(c2nc3c4cc(F)cc(F)c4nc(N)n3n2)CN1c1cnn(CC(C)(O)CO)c1 (single isomer, unassigned) [Example 256]"
541,,25,"CC1CCC(c2nc3c4cc(F)cc(F)c4nc(N)n3n2)CN1c1cnn(CC(C)(O)CO)c1 (single isomer, unassigned) [Example 257, (S or R)-2-(4-((2S,5R or 2R,5S)-5-(5-amino-7,9-difluoro-[1,2,4]triazolo[1,5-c]quinazolin-2-yl)-2-methylpiperidin-1-yl)-1H-pyrazol-1-yl)-2-methylpropane-1,2-diol]"
2.3,8.1,,"CC1CCC(c2nc3c4cc(F)cc(F)c4nc(N)n3n2)CN1c1cnn(CC(C)(O)CO)c1 (single isomer, unassigned) [Example 258, (R or S)-2-(4-((2R,5S or 2S,5R)-5-(5-amino-7,9-difluoro-[1,2,4]triazolo[1,5-c]quinazolin-2-yl)-2-methylpiperidin-1-yl)-1H-pyrazol-1-yl)-2-methylpropane-1,2-diol]"
2.3,11.8,,"CC1CCC(c2nc3c4cc(F)cc(F)c4nc(N)n3n2)CN1c1cnn(CC(C)(O)CO)c1 (single isomer, unassigned) [Example 259, (S or R)-2-(4-((2R,5S or 2S,5R)-5-(5-amino-7,9-difluoro-[1,2,4]triazolo[1,5-c]quinazolin-2-yl)-2-methylpiperidin-1-yl)-1H-pyrazol-1-yl)-2-methylpropane-1,2-diol]"
1.7,10,,"CC1CCC(c2nc3c4cc(F)cc(F)c4nc(N)n3n2)CN1c1cnn(CC(C)(CO)CO)c1 (single isomer, unassigned) [Example 260]"
86.6,1470,,"CC1CCC(c2nc3c4cc(F)cc(F)c4nc(N)n3n2)CN1c1cnn(CC(C)(CO)CO)c1 (single isomer, unassigned) [Example 261]"
2.2,23.9,,"COc1cc2nc(N)n3nc(C4CCC(C)N(c5cnn(CC(C)(C)N)c5)C4)nc3c2cc1F (single isomer, unassigned) [Example 262, 2-((3R,6S or 3S,6R)-1-(1-(2-amino-2-methylpropyl)-1H-pyrazol-4-yl)-6-methylpiperidin-3-yl)-9-fluoro-8-methoxy-[1,2,4]triazolo[1,5-c]quinazolin-5-amine]"
26,511,,"COc1cc2nc(N)n3nc(C4CCC(C)N(c5cnn(CC(C)(C)N)c5)C4)nc3c2cc1F (single isomer, unassigned) [Example 263, 2-((3S,6R or 3R,6S)-1-(1-(2-amino-2-methylpropyl)-1H-pyrazol-4-yl)-6-methylpiperidin-3-yl)-9-fluoro-8-methoxy-[1,2,4]triazolo[1,5-c]quinazolin-5-amine]"
3,14.3,,"COc1cc2nc(N)n3nc(C4CCC(C)N(c5cnn(C(C)(C)C(C)O)c5)C4)nc3c2cc1F (single isomer, unassigned) [Example 264, (R or S)-3-(4-((2S,5R or 2R,5S)-5-(5-amino-9-fluoro-8-methoxy-[1,2,4]triazolo[1,5-c]quinazolin-2-yl)-2-methylpiperidin-1-yl)-1H-pyrazol-1-yl)-3-methylbutan-2-ol]"
1.3,4.5,,"COc1cc2nc(N)n3nc(C4CCC(C)N(c5cnn(C(C)(C)C(C)O)c5)C4)nc3c2cc1F (single isomer, unassigned) [Example 265, (S or R)-3-(4-((2S,5R or 2R,5S)-5-(5-amino-9-fluoro-8-methoxy-[1,2,4]triazolo[1,5-c]quinazolin-2-yl)-2-methylpiperidin-1-yl)-1H-pyrazol-1-yl)-3-methylbutan-2-ol]"
64.2,580,,"COc1cc2nc(N)n3nc(C4CCC(C)N(c5cnn(C(C)(C)C(C)O)c5)C4)nc3c2cc1F (single isomer, unassigned) [Example 266, (R or S)-3-(4-((2R,5S or 2S,5R)-5-(5-amino-9-fluoro-8-methoxy-[1,2,4]triazolo[1,5-c]quinazolin-2-yl)-2-methylpiperidin-1-yl)-1H-pyrazol-1-yl)-3-methylbutan-2-ol]"
175,1210,,"COc1cc2nc(N)n3nc(C4CCC(C)N(c5cnn(C(C)(C)C(C)O)c5)C4)nc3c2cc1F (single isomer, unassigned) [Example 267, (S or R)-3-(4-((2R,5S or 2S,5R)-5-(5-amino-9-fluoro-8-methoxy-[1,2,4]triazolo[1,5-c]quinazolin-2-yl)-2-methylpiperidin-1-yl)-1H-pyrazol-1-yl)-3-methylbutan-2-ol]"

SMILES,IC50 (human A2A receptors) [nM],IC50 (human A2B receptors) [nM],A2B cAMP % Inh. @10000 nM (human A2B receptors; at 10000 nM) [% Inh.]
"COc1cc(F)cc2c1nc(N)n1nc(C3CCC(C)N(c4cnn(C(C)(C)C(C)O)c4)C3)nc21 (single isomer, unassigned) [Example 268, (R or S)-3-(4-((2S,5R or 2R,5S)-5-(5-amino-9-fluoro-7-methoxy-[1,2,4]triazolo[1,5-c]quinazolin-2-yl)-2-methylpiperidin-1-yl)-1H-pyrazol-1-yl)-3-methylbutan-2-ol]",0.7,4.7,
"COc1cc(F)cc2c1nc(N)n1nc(C3CCC(C)N(c4cnn(C(C)(C)C(C)O)c4)C3)nc21 (single isomer, unassigned) [Example 269, (S or R)-3-(4-((2S,5R or 2R,5S)-5-(5-amino-9-fluoro-7-methoxy-[1,2,4]triazolo[1,5-c]quinazolin-2-yl)-2-methylpiperidin-1-yl)-1H-pyrazol-1-yl)-3-methylbutan-2-ol]",1.2,6.4,
"COc1cc(F)cc2c1nc(N)n1nc(C3CCC(C)N(c4cnn(C(C)(C)C(C)O)c4)C3)nc21 (single isomer, unassigned) [Example 270, (R or S)-3-(4-((2R,5S or 2S,5R)-5-(5-amino-9-fluoro-7-methoxy-[1,2,4]triazolo[1,5-c]quinazolin-2-yl)-2-methylpiperidin-1-yl)-1H-pyrazol-1-yl)-3-methylbutan-2-ol]",5.2,30.3,
"COc1cc(F)cc2c1nc(N)n1nc(C3CCC(C)N(c4cnn(C(C)(C)C(C)O)c4)C3)nc21 (single isomer, unassigned) [Example 271, (S or R)-3-(4-((2R,5S or 2S,5R)-5-(5-amino-9-fluoro-7-methoxy-[1,2,4]triazolo[1,5-c]quinazolin-2-yl)-2-methylpiperidin-1-yl)-1H-pyrazol-1-yl)-3-methylbutan-2-ol]",21.4,242,
